# Laboratory results reported in paper doi:10.1101/2023.11.24.568596v1 (biorxiv, 2023).
# Key:
# Conditions in all cases: binder
# AAK1 = AAK1 (Homo sapiens, UniProt Q2M2I8)
# ABL1 = ABL1 (Homo sapiens, UniProt P00519)
# AurA = target: T1, AurA (Homo sapiens, UniProt O14965)
# T1 sequence (O14965 1-403): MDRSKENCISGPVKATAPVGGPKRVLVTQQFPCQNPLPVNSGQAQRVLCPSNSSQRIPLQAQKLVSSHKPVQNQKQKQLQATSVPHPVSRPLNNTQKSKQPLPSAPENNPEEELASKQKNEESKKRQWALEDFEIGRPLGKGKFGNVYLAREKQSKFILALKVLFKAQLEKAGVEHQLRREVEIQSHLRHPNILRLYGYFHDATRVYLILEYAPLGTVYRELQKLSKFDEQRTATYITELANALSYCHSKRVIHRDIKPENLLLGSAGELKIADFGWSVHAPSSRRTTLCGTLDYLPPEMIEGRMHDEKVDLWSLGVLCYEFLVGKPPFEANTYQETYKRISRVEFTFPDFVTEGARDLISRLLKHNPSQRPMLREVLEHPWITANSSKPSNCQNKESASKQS
# CK2a1 = CK2a1 (Homo sapiens, UniProt P68400)
# CaMK2b = CaMK2b (Homo sapiens, UniProt Q13554)
# DRAK2 = target: T2, DRAK2 (Homo sapiens, UniProt O94768)
# T2 sequence (O94768 1-372): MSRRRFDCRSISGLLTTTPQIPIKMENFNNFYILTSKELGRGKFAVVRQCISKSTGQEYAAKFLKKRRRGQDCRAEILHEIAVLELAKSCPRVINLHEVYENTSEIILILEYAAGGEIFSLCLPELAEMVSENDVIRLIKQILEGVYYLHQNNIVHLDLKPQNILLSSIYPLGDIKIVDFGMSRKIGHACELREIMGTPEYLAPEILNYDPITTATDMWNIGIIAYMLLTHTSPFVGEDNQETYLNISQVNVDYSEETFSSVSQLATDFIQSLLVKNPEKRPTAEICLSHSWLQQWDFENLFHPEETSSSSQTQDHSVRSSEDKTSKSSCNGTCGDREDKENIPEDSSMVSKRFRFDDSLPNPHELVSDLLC
# EphA2 = EphA2 (Homo sapiens, UniProt P29317)
# EphA4 = EphA4 (Homo sapiens, UniProt P54764)
# Erk2 = Erk2 (Homo sapiens, UniProt P28482)
# HIPK2 = HIPK2 (Homo sapiens, UniProt Q9H2X6)
# MAP2K4 = target: T3, MAP2K4 (Homo sapiens, UniProt P45985)
# T3 sequence (P45985 1-399): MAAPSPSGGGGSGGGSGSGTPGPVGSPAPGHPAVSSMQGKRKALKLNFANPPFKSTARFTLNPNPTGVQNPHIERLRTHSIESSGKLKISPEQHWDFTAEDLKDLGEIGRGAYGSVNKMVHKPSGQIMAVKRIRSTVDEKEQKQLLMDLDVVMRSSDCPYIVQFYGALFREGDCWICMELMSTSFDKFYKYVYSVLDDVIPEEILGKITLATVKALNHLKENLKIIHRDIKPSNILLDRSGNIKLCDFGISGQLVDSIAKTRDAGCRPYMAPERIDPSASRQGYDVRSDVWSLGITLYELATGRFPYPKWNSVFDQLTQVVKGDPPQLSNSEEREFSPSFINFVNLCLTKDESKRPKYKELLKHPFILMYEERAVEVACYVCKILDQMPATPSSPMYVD
# MSSK1 = MSSK1 (Homo sapiens, UniProt Q9UPE1)
# NEK2 = target: T4, NEK2 (Homo sapiens, UniProt P51955)
# T4 sequence (P51955 1-445): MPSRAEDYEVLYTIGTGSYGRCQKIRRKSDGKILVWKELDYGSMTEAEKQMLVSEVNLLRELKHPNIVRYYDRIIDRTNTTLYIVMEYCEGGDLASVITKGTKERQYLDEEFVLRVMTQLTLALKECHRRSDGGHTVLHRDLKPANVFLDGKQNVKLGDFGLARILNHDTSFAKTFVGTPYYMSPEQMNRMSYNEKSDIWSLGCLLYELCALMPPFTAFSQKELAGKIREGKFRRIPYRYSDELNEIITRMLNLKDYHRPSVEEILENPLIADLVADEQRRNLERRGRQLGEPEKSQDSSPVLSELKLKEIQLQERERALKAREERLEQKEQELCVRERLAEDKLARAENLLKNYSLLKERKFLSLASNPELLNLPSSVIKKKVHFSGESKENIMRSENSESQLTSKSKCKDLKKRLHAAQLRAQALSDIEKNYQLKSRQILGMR
# PIM3 = PIM3 (Homo sapiens, UniProt Q86V86)
# SRC = SRC (Homo sapiens, UniProt P12931)
# Sequence of EphA4 (P54764 whole entry): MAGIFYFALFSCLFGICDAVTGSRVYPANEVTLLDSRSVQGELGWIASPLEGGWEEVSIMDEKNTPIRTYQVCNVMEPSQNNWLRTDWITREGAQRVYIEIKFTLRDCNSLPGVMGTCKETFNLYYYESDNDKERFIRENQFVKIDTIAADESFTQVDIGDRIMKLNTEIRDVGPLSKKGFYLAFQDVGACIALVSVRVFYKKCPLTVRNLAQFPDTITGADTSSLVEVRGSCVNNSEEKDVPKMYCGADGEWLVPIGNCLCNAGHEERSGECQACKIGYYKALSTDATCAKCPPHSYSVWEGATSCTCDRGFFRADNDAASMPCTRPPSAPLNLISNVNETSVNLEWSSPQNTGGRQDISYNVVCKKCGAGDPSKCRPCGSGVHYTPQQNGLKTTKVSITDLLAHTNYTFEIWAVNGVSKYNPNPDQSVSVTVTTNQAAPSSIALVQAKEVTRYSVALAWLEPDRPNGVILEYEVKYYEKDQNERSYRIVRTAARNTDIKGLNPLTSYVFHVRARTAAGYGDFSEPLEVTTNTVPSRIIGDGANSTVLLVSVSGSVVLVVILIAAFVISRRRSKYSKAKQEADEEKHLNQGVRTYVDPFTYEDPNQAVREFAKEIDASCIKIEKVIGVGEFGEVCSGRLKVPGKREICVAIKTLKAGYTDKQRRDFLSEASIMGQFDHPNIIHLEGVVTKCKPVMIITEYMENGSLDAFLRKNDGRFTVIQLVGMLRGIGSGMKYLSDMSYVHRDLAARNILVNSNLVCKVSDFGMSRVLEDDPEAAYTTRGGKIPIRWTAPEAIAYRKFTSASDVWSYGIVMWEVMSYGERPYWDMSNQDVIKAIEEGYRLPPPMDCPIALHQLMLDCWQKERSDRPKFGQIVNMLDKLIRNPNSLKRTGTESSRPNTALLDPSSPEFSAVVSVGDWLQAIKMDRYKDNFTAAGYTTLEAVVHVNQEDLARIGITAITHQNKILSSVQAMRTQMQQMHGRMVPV
# Sequence of HIPK2 (Q9H2X6 whole entry): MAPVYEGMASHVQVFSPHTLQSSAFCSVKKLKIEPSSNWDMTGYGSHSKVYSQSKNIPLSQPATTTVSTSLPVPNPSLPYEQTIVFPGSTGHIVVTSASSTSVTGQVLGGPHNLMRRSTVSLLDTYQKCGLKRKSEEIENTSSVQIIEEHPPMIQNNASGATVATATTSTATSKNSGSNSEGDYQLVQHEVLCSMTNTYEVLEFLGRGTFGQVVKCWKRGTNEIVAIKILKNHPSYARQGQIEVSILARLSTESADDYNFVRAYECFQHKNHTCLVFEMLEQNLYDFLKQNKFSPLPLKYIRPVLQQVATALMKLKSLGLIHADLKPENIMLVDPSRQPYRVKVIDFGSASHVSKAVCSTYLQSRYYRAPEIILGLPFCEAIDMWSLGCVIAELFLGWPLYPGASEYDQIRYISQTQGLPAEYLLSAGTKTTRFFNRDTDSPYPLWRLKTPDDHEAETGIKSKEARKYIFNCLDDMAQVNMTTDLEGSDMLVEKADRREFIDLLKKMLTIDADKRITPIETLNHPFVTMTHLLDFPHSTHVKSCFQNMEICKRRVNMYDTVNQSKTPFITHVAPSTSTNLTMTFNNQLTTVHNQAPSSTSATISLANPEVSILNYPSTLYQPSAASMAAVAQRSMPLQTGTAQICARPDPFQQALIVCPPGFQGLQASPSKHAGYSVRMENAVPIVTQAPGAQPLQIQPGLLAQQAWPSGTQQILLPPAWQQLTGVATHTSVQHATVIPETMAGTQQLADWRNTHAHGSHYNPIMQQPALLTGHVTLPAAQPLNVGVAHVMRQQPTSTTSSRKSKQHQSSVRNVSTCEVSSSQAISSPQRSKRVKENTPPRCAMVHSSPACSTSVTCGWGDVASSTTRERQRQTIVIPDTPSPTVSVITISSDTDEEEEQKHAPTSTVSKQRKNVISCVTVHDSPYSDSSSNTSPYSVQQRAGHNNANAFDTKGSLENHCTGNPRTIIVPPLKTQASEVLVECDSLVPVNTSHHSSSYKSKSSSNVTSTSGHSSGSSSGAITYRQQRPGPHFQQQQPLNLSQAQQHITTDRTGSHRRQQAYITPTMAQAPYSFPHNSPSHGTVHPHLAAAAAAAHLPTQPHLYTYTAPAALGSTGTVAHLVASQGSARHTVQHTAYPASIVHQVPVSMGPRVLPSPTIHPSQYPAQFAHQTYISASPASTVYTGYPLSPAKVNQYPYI
# Sequence of Erk2 (P28482 whole entry): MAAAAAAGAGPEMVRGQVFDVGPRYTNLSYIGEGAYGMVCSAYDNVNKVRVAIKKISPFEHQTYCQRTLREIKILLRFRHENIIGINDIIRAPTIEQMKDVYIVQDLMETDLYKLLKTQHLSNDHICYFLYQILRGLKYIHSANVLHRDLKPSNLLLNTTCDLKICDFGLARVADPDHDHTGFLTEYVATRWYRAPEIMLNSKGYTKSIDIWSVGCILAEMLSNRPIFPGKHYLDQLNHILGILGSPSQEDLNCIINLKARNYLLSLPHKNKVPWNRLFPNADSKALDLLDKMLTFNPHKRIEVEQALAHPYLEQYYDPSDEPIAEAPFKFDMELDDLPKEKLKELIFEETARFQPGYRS
# Sequence of CaMK2b (Q13554 whole entry): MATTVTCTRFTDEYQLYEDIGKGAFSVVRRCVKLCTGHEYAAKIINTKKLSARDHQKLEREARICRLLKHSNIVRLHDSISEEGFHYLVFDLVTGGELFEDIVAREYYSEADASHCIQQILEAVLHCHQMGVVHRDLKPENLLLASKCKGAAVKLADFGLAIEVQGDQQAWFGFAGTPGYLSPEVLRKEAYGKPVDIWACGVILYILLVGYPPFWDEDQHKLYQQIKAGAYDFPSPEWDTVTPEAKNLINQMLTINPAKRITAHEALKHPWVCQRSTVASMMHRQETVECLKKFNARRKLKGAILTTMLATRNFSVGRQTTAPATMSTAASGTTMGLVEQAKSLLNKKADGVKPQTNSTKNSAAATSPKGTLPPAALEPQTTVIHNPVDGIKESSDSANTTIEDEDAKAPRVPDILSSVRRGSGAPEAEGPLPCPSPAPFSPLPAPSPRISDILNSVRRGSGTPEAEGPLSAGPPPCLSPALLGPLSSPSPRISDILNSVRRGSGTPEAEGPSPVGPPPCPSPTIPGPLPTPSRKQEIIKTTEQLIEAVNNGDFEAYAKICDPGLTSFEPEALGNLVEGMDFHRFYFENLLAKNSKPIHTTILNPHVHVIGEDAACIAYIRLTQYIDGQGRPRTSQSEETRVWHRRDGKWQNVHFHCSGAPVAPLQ
# Sequence of ABL1 (P00519 whole entry): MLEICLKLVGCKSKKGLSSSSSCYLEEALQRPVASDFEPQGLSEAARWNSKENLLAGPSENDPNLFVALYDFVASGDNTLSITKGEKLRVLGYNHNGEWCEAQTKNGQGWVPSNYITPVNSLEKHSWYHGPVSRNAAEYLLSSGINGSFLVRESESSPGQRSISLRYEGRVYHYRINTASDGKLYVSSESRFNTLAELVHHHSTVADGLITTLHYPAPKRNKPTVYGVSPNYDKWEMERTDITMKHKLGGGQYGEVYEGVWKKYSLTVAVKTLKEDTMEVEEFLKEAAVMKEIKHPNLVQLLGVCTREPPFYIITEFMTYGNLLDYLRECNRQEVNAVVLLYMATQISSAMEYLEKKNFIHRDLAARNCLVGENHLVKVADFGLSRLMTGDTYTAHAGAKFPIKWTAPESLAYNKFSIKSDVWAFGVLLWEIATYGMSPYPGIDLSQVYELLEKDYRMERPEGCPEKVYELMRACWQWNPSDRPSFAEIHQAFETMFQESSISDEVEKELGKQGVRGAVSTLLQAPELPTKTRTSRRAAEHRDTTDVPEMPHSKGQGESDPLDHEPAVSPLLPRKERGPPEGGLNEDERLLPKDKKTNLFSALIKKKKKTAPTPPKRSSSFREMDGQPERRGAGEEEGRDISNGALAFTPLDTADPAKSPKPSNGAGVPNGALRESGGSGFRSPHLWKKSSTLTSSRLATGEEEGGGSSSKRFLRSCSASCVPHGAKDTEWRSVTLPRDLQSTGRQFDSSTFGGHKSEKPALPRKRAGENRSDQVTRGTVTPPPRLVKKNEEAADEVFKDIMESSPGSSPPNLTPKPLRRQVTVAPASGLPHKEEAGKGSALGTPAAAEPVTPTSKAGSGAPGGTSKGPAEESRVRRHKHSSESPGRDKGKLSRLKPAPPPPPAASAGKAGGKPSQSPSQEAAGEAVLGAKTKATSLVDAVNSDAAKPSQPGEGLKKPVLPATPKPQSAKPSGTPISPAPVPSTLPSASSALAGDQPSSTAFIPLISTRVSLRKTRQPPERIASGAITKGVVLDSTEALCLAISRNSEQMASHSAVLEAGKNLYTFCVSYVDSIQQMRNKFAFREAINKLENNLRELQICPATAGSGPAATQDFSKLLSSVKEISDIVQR
# Sequence of CK2a1 (P68400 whole entry): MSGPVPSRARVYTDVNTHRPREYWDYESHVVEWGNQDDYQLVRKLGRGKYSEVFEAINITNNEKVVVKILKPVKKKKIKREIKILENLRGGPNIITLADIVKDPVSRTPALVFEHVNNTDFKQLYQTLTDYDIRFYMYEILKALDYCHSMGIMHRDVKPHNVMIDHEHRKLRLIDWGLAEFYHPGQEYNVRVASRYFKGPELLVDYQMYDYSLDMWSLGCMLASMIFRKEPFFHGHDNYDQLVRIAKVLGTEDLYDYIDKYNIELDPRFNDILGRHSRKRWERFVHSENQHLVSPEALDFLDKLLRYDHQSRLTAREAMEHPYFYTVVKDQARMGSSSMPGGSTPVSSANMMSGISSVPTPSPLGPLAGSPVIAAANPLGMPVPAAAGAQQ
smiles,measurement,setting,value
"COc1ccc(O)c(Nc2ncc3cc(-c4ccc(-c5cccc(C)n5)cc4Cl)c(=O)n(CCCCN)c3n2)c1 [compound 34, 8-(4-Aminobutyl)-6-(2-chloro-4-(6-methylpyridin-2-yl)phenyl)-2-((2-hydroxy-5-methoxy-phenyl)amino)pyrido[2,3-d]pyrimidin-7(8H)-one]",dTm 34,AAK1,1.4 °C
same,dTm 34,ABL1,5.2 °C
same,dTm 34,AurA,3.4 °C
same,dTm 34,CK2a1,0.5 °C
same,dTm 34,CaMK2b,-0.8 °C
same,dTm 34,DRAK2,7.5 °C
same,dTm 34,EphA2,3.9 °C
same,dTm 34,EphA4,2.5 °C
same,dTm 34,Erk2,-2.7 °C
same,dTm 34,HIPK2,0.5 °C
same,dTm 34,MAP2K4,8.0 °C
same,dTm 34,MSSK1,0.4 °C
same,dTm 34,NEK2,8.4 °C
same,dTm 34,PIM3,2.4 °C
same,dTm 34,SRC,3.1 °C
"Cc1cccc(-c2ccc(-c3cc4cnc(Nc5ccc(F)c(CO)c5)nc4n(CCCCN)c3=O)c(Cl)c2)n1 [compound 33, 8-(4-Aminobutyl)-6-(2-chloro-4-(6-methylpyridin-2-yl)phenyl)-2-((4-fluoro-3-(hydroxymethyl)phenyl)amino)pyrido[2,3-d]pyrimidin-7(8H)-one]",dTm 33,AAK1,4.1 °C
same,dTm 33,ABL1,10.6 °C
same,dTm 33,AurA,2.8 °C
same,dTm 33,CK2a1,-0.4 °C
same,dTm 33,CaMK2b,-0.2 °C
same,dTm 33,DRAK2,10.5 °C
same,dTm 33,EphA2,8.3 °C
same,dTm 33,EphA4,3.5 °C
same,dTm 33,Erk2,-0.7 °C
same,dTm 33,HIPK2,2.0 °C
same,dTm 33,MAP2K4,10.0 °C
same,dTm 33,MSSK1,-0.4 °C
same,dTm 33,NEK2,10.6 °C
same,dTm 33,PIM3,4.6 °C
same,dTm 33,SRC,4.7 °C
"COc1cc(N2CCOCC2)ccc1Nc1ncc2cc(-c3ccc(-c4cccc(C)n4)cc3Cl)c(=O)n(CCCCN)c2n1 [compound 35, 8-(4-Aminobutyl)-6-(2-chloro-4-(6-methylpyridin-2-yl)phenyl)-2-((2-methoxy-4-morpholino-phenyl)amino)pyrido[2,3-d]pyrimidin-7(8H)-one]",dTm 35,AAK1,3.0 °C
same,dTm 35,ABL1,5.8 °C
same,dTm 35,AurA,8.6 °C
same,dTm 35,CK2a1,-0.1 °C
same,dTm 35,CaMK2b,-1.4 °C
same,dTm 35,DRAK2,7.0 °C
same,dTm 35,EphA2,4.6 °C
same,dTm 35,EphA4,2.7 °C
same,dTm 35,Erk2,-3.0 °C
same,dTm 35,HIPK2,0.1 °C
same,dTm 35,MAP2K4,7.6 °C
same,dTm 35,MSSK1,-0.2 °C
same,dTm 35,NEK2,10.6 °C
same,dTm 35,PIM3,-2.4 °C
same,dTm 35,SRC,4.4 °C
"COc1cc(N2CCN(C)CC2)ccc1Nc1ncc2cc(-c3ccc(-c4cccc(C)n4)cc3Cl)c(=O)n(CCCCN)c2n1 [compound 36, 8-(4-Aminobutyl)-6-(2-chloro-4-(6-methylpyridin-2-yl)phenyl)-2-((2-methoxy-4-(4-methylpiperazin-1-yl)phenyl)amino)pyrido[2,3-d]pyrimidin-7(8H)-one]",dTm 36,AAK1,2.4 °C
same,dTm 36,ABL1,5.0 °C
same,dTm 36,AurA,5.1 °C
same,dTm 36,CK2a1,0.2 °C
same,dTm 36,CaMK2b,-0.6 °C
same,dTm 36,DRAK2,4.3 °C
same,dTm 36,EphA2,2.4 °C
same,dTm 36,EphA4,2.4 °C
same,dTm 36,Erk2,-2.7 °C
same,dTm 36,HIPK2,0.3 °C
same,dTm 36,MAP2K4,6.9 °C
same,dTm 36,MSSK1,0.0 °C
same,dTm 36,NEK2,9.2 °C
same,dTm 36,PIM3,-2.1 °C
same,dTm 36,SRC,4.1 °C
